Measured values: patent US20250179023A1, “HOLOSYMMETRIC BIPHENYL DERIVATIVE, AND PREPARATION METHOD THEREFOR AND USE THEREOF” (Abbisko Therapeutics Co., Ltd., priority 2022, published 2025)

How the values were obtained:
in vitro = settings: human, Caco-2, pH 7.4
Method: (§6) The permeability and the efflux ratio of the compounds of the examples of the present invention and the comparative compounds were evaluated using a Caco-2 cell model in this experiment. The specific process was as follows: • 1) The Caco-2 cell culture medium was modified Eagle's medium (MEM) containing 10% inactivated fetal bovine serum and 1% nonessential amino acids.
(§7) Working solutions were obtained by diluting with Hank's balanced salt solution (HBSS, Invitrogen) containing 25 mM HEPES (pH 7.4). The detection concentration of the test compound was 10 μM. This study was a two-way permeation experiment from the apical side to the basolateral side (A−B) and from the basolateral side to the apical side (B−A), and a 90-minute incubation at 37° C. was required. After the incubation, the samples diluted with buffer were detected by LC-MS/MS. The concentrations of the compounds were quantified using a standard curve. • 4) Apparent permeability coefficient Papp value (cm/s):

Caco-2 cells [1] = system: Caco-2 cells
Method: as §6, §7

[2] = Pharmacokinetics in rats (exposure and oral availability); format: in vivo; settings: male, ICR, rat; for bioavailability: PO (5 mpk) vs IV (1 mpk), read-out: Oral availability (F %)
Source text: (§1) The purpose of this study is to study the pharmacokinetic behaviors of some compounds of the present invention, and administration routes were: single per oral administration (PO) or intravenous injection (IV) to ICR mice or rats.
(§2) The compounds used in this test were compounds of specific examples of the present invention and the comparative compounds listed.
ICR rats male N=3 original source: Shanghai Sippr-BK Laboratory Animal Co. Ltd.
(§3) The compounds were each dissolved in a corresponding vehicle, mixed well by shaking and subjected to ultrasonic treatment to obtain colorless clear solutions. 9 mice and 3 rats were orally administered with the solution after fasting overnight. The mice were dosed at 10 mg/kg (or 2 mg/kg by IV) and the rats were dosed at 5 mg/kg (or 1 mg/kg by IV).
(§4) With about 90 μL/time point, blood was drawn from the submaxillary vein, and heparin sodium was added for anticoagulation. The blood samples were placed onto the ice and centrifuged (centrifugation conditions: 8000 rpm, 6 min, 2-8° C.) within 1 hr to isolate the plasmas. The time points for blood sampling were at 0 hrs, 0.25 hrs, 0.5 hrs, 1 hr, 2 hrs, 4 hrs, 6 hrs, 8 hrs and 24 hrs after administration. The samples were stored in a refrigerator at −20° C.
(§5) 40 μL of plasma sample was added to 160 μL of cold acetonitrile containing an internal standard, and the mixture was vortexed for 3 min and centrifuged at 11,000 rpm for 5 min. 100 μL of the supernate was added to 100 μL of water, and 5 μL of the mixed solution was loaded for LC-MS/MS analysis. For comparative compounds 1, 3, 5, the prodrug compounds and corresponding prototype compounds 2, 4, 6 were all analyzed, and specific analysis results are shown in Table 4.

PD-1/PD-L1 interaction = PD-1/PD-L1 interaction (Homo sapiens (Human), UniProt Q9NZQ7); assay: PD1-PDL1 HTRF binding activity test; settings: Cisbio PD-1/PD-L1 binding assay kit
Method: The effect of compounds of the examples of the present invention on the PD-1/PD-L1 interaction was determined by the PD-1/PD-L1 binding assay kit from Cisbio (#64ICP01PEG or 64ICP01PEH).

[3] = Caco-2 membrane permeability test; settings: human, Caco-2, pH 7.4
Method: as §6, §7

[4] = target: PD-1/PD-L1 interaction (Jurkat/NF-κB-luc/PD1 cells cocultured with Raji-PD-L1 cells) (Homo sapiens (Human), UniProt Q9NZQ7); assay: Jurkat reporter gene cellular assay; format: cell-based; settings: NF-κB-luc reporter activation fold, OKT3 1 μg/mL, 6 hrs; read-out: Cell activity EC50
Method: The effect of compounds of the examples of the present invention on the PD-1/PD-L1 interaction expressed on cell surfaces and the related influence on T cell functions were determined by a Jurkat reporter gene cellular assay. Briefly, the reporter gene plasmid of NF-κB-luc and the plasmid of human PD-1 were transfected into Jurkat cells to establish a stably transfected cell line capable of stably expressing both PD-1 and NF-κB-Luc reporter genes; the expression level of PD-1 on the cell surface was confirmed by flow cytometry; and the expression of the reporter gene was confirmed via the response of the reporter gene stimulated by OKT-3 and Raji cells.
In addition, the plasmid of human PD-L1 was transfected into Raji cells to obtain a cell line capable of stably expressing PD-L1. Jurkat/NF-κB-luc/PD1 cells and Raji-PD-L1 cells were then cocultured and stimulated with OKT-3. On this basis, the compounds were added, and the enhancement of the signal pathway of T cell activation by the inhibitory effect of the compounds on the PD-1/PD-L1 interaction was evaluated by readings of reporter gene responses.

[5] = Pharmacokinetics in mice (exposure and oral availability); format: in vivo; settings: male, mouse, ICR mice; for bioavailability: PO (10 mpk) vs IV (2 mpk), read-out: Oral availability (F %)
Source text: as §1, §2
ICR mice male N=9 original source: Shanghai Sippr-BK Laboratory Animal Co. Ltd.
as §3, §4, §5

Caco-2 cells [6] = assay: Caco-2 membrane permeability test; settings: Caco-2, summary of Table 2
Method: as §6, §7

[7] = 5 mg/kg, PO (5 mpk), dosed compound detected in plasma
[8] = 10 mg/kg, PO (10 mpk), dosed compound detected in plasma

PD-1/PD-L1 interaction (Jurkat/NF-κB-luc/PD1 cells cocultured with Raji-PD-L1 cells), sequence (Q9NZQ7 19-290): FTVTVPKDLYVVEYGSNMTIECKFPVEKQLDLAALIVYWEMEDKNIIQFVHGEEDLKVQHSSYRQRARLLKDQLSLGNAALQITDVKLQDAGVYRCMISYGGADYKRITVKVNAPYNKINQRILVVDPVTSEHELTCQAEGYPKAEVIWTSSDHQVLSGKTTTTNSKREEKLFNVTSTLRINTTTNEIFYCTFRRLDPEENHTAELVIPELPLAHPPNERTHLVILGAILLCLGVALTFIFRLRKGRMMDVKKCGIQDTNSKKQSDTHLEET
PD-1/PD-L1 interaction, sequence (Q9NZQ7 19-238): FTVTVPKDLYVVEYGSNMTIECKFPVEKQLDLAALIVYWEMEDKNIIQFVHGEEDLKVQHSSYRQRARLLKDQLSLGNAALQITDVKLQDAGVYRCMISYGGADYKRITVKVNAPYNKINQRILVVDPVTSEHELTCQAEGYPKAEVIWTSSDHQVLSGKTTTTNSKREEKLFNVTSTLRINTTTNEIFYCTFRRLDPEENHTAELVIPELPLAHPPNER

Compound | IC50 (PD-1/PD-L1 interaction) | Papp A→B at 90 min, 10 μM [3] | Papp B→A at 90 min, 10 μM [3] | efflux ratio at 90 min, 10 μM [3] | EC50 [4] | Cmax [5, 8] | bioavailability ([5]; plasma, 10 mg/kg) | further results
CC[C@H]1OC(=O)[C@H](C)[C@@H](O[C@H]2C[C@@](C)(OC)[C@@H](O)[C@H](C)O2)[C@H](C)[C@@H](O[C@@H]2O[C@H](C)C[C@H](N(C)C)[C@H]2O)[C@](C)(O)C[C@@H](C)C(=O)[C@H](C)[C@@H](O)[C@]1(C)O [Erythromycin, erythromycin] |  |  |  |  |  |  |  | Papp A→B at 90 min, 10 μM (in vitro): 0.2 ×10⁻⁶ cm/s; Papp B→A at 90 min, 10 μM (in vitro): 21.6 ×10⁻⁶ cm/s; efflux ratio at 90 min (in vitro): 107; Evaluation of permeability (Caco-2 cells [1]): High efflux
Cc1c(NC(=O)c2cc(C3CC3)c(CNC34CCC(C(=O)O)(CC3)CC4)cn2)cccc1-c1cccc(NC(=O)c2cc(C3CC3)c(CNC34CCC(C(=O)O)(CC3)CC4)cn2)c1C [Example 1, 4-(((6-((3′-(5-(((4-carboxybicyclo[2.2.2]octan-1-yl)amino)methyl) -4-cyclopropylpicolinamido)-2,2′-dimethyl-[1,1′-biphenyl]-3-yl)carbamoyl)-4-cyclopropylpyridin-3-yl)methyl)amino)bicyclo[2.2.2]octane-1-carboxylic acid] | 2.56 nM | 2.46 ×10⁻⁶ cm/s | 16.5 ×10⁻⁶ cm/s | 6.75 | 135 nM | 1910 ng/mL | 19.5% | AUC(0-t) [2, 7]: 2220 ng·h/mL; Cmax [2, 7]: 426 ng/mL; AUC(0-t) ([2]; plasma, 1 mg/kg, IV (1 mpk)): 2350 ng·h/mL; Cmax ([2]; plasma, 1 mg/kg, IV (1 mpk)): 3540 ng/mL; bioavailability ([2]; plasma, 5 mg/kg): 18.9%; AUC(0-t) [5, 8]: 8790 ng·h/mL; AUC(0-t) ([5]; plasma, 2 mg/kg, IV (2 mpk)): 9000 ng·h/mL; Cmax ([5]; plasma, 2 mg/kg, IV (2 mpk)): 4000 ng/mL
Cc1c(NC(=O)c2cc(C3CC3)c(CNC34CCC(C(=O)O)(CC3)C4)cn2)cccc1-c1cccc(NC(=O)c2cc(C3CC3)c(CNC34CCC(C(=O)O)(CC3)C4)cn2)c1C [Example 2, 4,4′-((((((2,2′-dimethyl-[1,1′-biphenyl]-3,3′-diyl)bis(azanediyl))bis(carbonyl))bis (4-cyclopropylpyridine-6,3-diyl))bis(methylene))bis(azanediyl))bis(bicyclo[2.2.1]heptane-1-carboxylic acid)] | 3.67 nM |  |  |  | 151 nM |  |  | 
Cc1c(NC(=O)c2cc(C3CC3)c(CN(C)C34CCC(C(=O)O)(CC3)C4)cn2)cccc1-c1cccc(NC(=O)c2cc(C3CC3)c(CN(C)C34CCC(C(=O)O)(CC3)C4)cn2)c1C [Example 3, 4,4′-((((((2,2′-dimethyl-[1,1′-biphenyl]-3,3′-diyl)bis(azanediyl))bis(carbonyl))bis(4-cyclopropylpyridine-6,3-diyl))bis(methylene))bis(methylazanediyl))bis(bicyclo[2.2.1]heptane-1-carboxylic acid)] | 4.62 nM |  |  |  | 1380 nM |  |  | 
Cc1c(NC(=O)c2cc(C3CC3)c(CNCC34CCC(C(=O)O)(CC3)C4)cn2)cccc1-c1cccc(NC(=O)c2cc(C3CC3)c(CNCC34CCC(C(=O)O)(CC3)C4)cn2)c1C [Example 4, 4,4′-(((((((2,2′-dimethyl-[1,1′-biphenyl]-3,3′-diyl)bis(azanediyl))bis(carbonyl))bis(4-cyclopropylpyridine-6,3-diyl))bis(methylene))bis(azanediyl))bis(methylene))bis(bicyclo[2.2.1]heptane-1-carboxylic acid)] | 1.46 nM | 9.79 ×10⁻⁶ cm/s | 21.7 ×10⁻⁶ cm/s | 2.21 | 247 nM | 4550 ng/mL | 57.5% | AUC(0-t) [2, 7]: 4840 ng·h/mL; Cmax [2, 7]: 1980 ng/mL; AUC(0-t) ([2]; plasma, 1 mg/kg, IV (1 mpk)): 2200 ng·h/mL; Cmax ([2]; plasma, 1 mg/kg, IV (1 mpk)): 1860 ng/mL; bioavailability ([2]; plasma, 5 mg/kg): 44%; AUC(0-t) [5, 8]: 17600 ng·h/mL; AUC(0-t) ([5]; plasma, 2 mg/kg, IV (2 mpk)): 6110 ng·h/mL; Cmax ([5]; plasma, 2 mg/kg, IV (2 mpk)): 3520 ng/mL
COCCc1ccc(OCC(O)CNC(C)C)cc1 (centres unmarked) [Metoprolol, metoprolol] |  |  |  |  |  |  |  | Papp A→B at 90 min, 10 μM (in vitro): 24.7 ×10⁻⁶ cm/s; Papp B→A at 90 min, 10 μM (in vitro): 31.1 ×10⁻⁶ cm/s; efflux ratio at 90 min (in vitro): 1.26; Evaluation of permeability (Caco-2 cells [1]): High
COC(=O)[C@@H](CO)NCc1cnc(C(=O)Nc2cccc(-c3cccc(NC(=O)c4cc(C5CC5)c(CN[C@H](CO)C(=O)OC)cn4)c3C)c2C)cc1C1CC1 [compound 1, reference compound] |  | < 2.28 ×10⁻⁶ cm/s | < 1.85 ×10⁻⁶ cm/s |  |  |  | 0% | bioavailability ([2]; plasma, 5 mg/kg): 0%
Cc1c(NC(=O)c2cc(C3CC3)c(CN[C@H](CO)C(=O)O)cn2)cccc1-c1cccc(NC(=O)c2cc(C3CC3)c(CN[C@H](CO)C(=O)O)cn2)c1C [compound 2, reference compound] |  | 0.67 ×10⁻⁶ cm/s | 0.36 ×10⁻⁶ cm/s | 0.53 |  |  | 0% | AUC(0-t) ([2]; plasma, 1 mg/kg, IV (1 mpk)): 7640 ng·h/mL; Cmax ([2]; plasma, 1 mg/kg, IV (1 mpk)): 13200 ng/mL; A−B membrane permeability (in words) (Caco-2 cells [6]): poor membrane permeability; AUC(0-t) ([5]; plasma, 2 mg/kg, IV (2 mpk)): 2360 ng·h/mL; Cmax ([5]; plasma, 2 mg/kg, IV (2 mpk)): 5640 ng/mL
CCOC(=O)CNCc1cnc(C(=O)Nc2cccc(-c3cccc(NC(=O)c4cc(C5CC5)c(CNCC(=O)OCC)cn4)c3C)c2C)cc1C1CC1 [compound 3, reference compound] |  |  |  |  |  |  | 0% | 
Cc1c(NC(=O)c2cc(C3CC3)c(CNCC(=O)O)cn2)cccc1-c1cccc(NC(=O)c2cc(C3CC3)c(CNCC(=O)O)cn2)c1C [compound 4] |  | < 0.24 ×10⁻⁶ cm/s | 0.98 ×10⁻⁶ cm/s |  |  |  |  | A−B membrane permeability (in words) (Caco-2 cells [6]): poor membrane permeability
COC(=O)[C@H]1CCN(Cc2cnc(C(=O)Nc3cccc(-c4cccc(NC(=O)c5cc(C6CC6)c(CN6CC[C@H](C(=O)OC)C6)cn5)c4C)c3C)cc2C2CC2)C1 [compound 5] |  | < 1.79 ×10⁻⁶ cm/s | < 0.65 ×10⁻⁶ cm/s |  |  | 30.4 ng/mL |  | 
Cc1c(NC(=O)c2cc(C3CC3)c(CN3CC[C@H](C(=O)O)C3)cn2)cccc1-c1cccc(NC(=O)c2cc(C3CC3)c(CN3CC[C@H](C(=O)O)C3)cn2)c1C [compound 6] |  | 0.34 ×10⁻⁶ cm/s | 5.51 ×10⁻⁶ cm/s | 16.3 |  | 46.2 ng/mL |  | A−B membrane permeability (in words) (Caco-2 cells [6]): poor membrane permeability; AUC(0-t) [5, 8]: 147 ng·h/mL
